According to ChEMBL document CHEMBL1201862, “PubChem BioAssay data set” (2004):
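Five concentrations, 48 hours, 96-well plates. Here, GI50 denotes the concentration required for 50% inhibition of growth.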 Calls of active or inactive are those of the source. Rule as the data show it: active = GI50 up to about 1.1 µM and inactive = higher.

Tests used:
Assay in all cases: inhibition of tumour cell growth, NCI panel, 48 h
NCI-H460 = system: NCI-H460
SF-295 = system: SF-295
HCT-15 = system: HCT-15
MDA-MB-231 = system: MDA-MB-231
NCI-H23 = system: NCI-H23
HCC 2998 = system: HCC 2998
CCRF-CEM = system: CCRF-CEM
RPMI-8226 = system: RPMI-8226
TK-10 = system: TK-10
UACC-62 = system: UACC-62
A549 = system: A549
IGROV-1 = system: IGROV-1
A498 = system: A498
UACC-257 = system: UACC-257
NCI-H522 = system: NCI-H522
SK-MEL-5 = system: SK-MEL-5
BT-549 = system: BT-549
SW-620 = system: SW-620
DU-145 = system: DU-145
PC-3 = system: PC-3
U-251 = system: U-251
SNB-75 = system: SNB-75
SF-268 = system: SF-268
Hs-578T = system: Hs-578T
HOP-62 = system: HOP-62
EKVX = system: EKVX
RXF 393 = system: RXF 393
Malme-3M = system: Malme-3M
SR = system: SR
SF-539 = system: SF-539
HT-29 = system: HT-29
HL-60 = system: HL-60
OVCAR-8 = system: OVCAR-8
MOLT-4 = system: MOLT-4
SK-MEL-28 = system: SK-MEL-28
OVCAR-4 = system: OVCAR-4
HCT-116 = system: HCT-116
COLO 205 = system: COLO 205
LOX IMVI = system: LOX IMVI
OVCAR-3 = system: OVCAR-3
K562 = system: K562
UO-31 = system: UO-31
KM12 = system: KM12
SNB-19 = system: SNB-19
T47D = system: T47D
MCF7 = system: MCF7
MDA-MB-435 = system: MDA-MB-435
NCI/ADR-RES = system: NCI/ADR-RES
786-0 = system: 786-0
HOP-92 = system: HOP-92
ACHN = system: ACHN
SN12C = system: SN12C
SK-MEL-2 = system: SK-MEL-2
CAKI-1 = system: CAKI-1
OVCAR-5 = system: OVCAR-5
SK-OV-3 = system: SK-OV-3
NCI-H226 = system: NCI-H226
MDA-N = system: MDA-N

Measured: GI50

Cc1nc2ccc(F)cc2c2c1CCS2
inactive: NCI-H460 48.2 µM | SF-295 94.4 µM | MDA-MB-231 39.9 µM | NCI-H23 > 100 µM | HCC 2998 58.1 µM | CCRF-CEM 41 µM | RPMI-8226 38.8 µM | TK-10 54.5 µM | UACC-62 81.7 µM | A549 > 100 µM | IGROV-1 > 100 µM | A498 > 100 µM | UACC-257 71.9 µM | NCI-H522 75.5 µM | SK-MEL-5 30.3 µM | BT-549 54.8 µM | SW-620 > 100 µM | DU-145 > 100 µM | PC-3 41.1 µM | U-251 50.4 µM | SNB-75 38.6 µM | SF-268 40.6 µM | Hs-578T 43 µM | HOP-62 57.4 µM | EKVX 26.2 µM | RXF 393 18.5 µM | Malme-3M 84.5 µM | SR 56.8 µM | SF-539 > 100 µM | HT-29 71.8 µM | HL-60 24 µM | OVCAR-8 69.3 µM | MOLT-4 38.1 µM | SK-MEL-28 80.5 µM | OVCAR-4 > 100 µM | HCT-116 46.6 µM | COLO 205 38.5 µM | LOX IMVI 51.3 µM | OVCAR-3 45.9 µM | K562 34.6 µM | UO-31 65.9 µM | KM12 64.9 µM | SNB-19 30.3 µM | T47D 33.7 µM | MCF7 56.4 µM | MDA-MB-435 35.8 µM | NCI/ADR-RES 95.1 µM | 786-0 78.7 µM | HOP-92 94.6 µM | ACHN 73.6 µM
> 100 µM: HCT-15

C[C@]12CC[C@@H]3c4cc(OCC(F)(F)F)c(O)cc4/C(=N/O)C[C@H]3[C@@H]1CC[C@@H]2O
inactive: HCC 2998 2.82 µM | TK-10 23.7 µM | PC-3 2.56 µM | HT-29 3.62 µM | OVCAR-5 12.9 µM | OVCAR-4 7 µM | COLO 205 16 µM
active: MDA-MB-231 0.0592 µM | SN12C 0.0873 µM | CCRF-CEM < 0.0163 µM | A549 0.0372 µM | IGROV-1 0.147 µM | A498 0.0977 µM | SK-MEL-2 0.0351 µM | UACC-257 0.0509 µM | CAKI-1 0.0468 µM | SK-MEL-5 0.0232 µM | BT-549 < 0.01 µM | U-251 0.026 µM | SNB-75 < 0.01 µM | SF-268 0.0484 µM | Hs-578T 0.0215 µM | EKVX 0.23 µM | Malme-3M 0.0299 µM | SF-539 0.0188 µM | OVCAR-3 0.0156 µM | SK-OV-3 0.0384 µM | KM12 0.537 µM | NCI-H226 0.27 µM | MDA-N 0.011 µM | SNB-19 0.025 µM | MCF7 0.0247 µM | MDA-MB-435 < 0.0126 µM | HOP-92 0.33 µM
